According to US20120101169A1, “METHODS OF PROVIDING ANTICOAGULATION EFFECTS IN SUBJECTS” (Penwest Pharmaceuticals Co., priority 2010, published 2012):
Several values for one entry are separate records, joined by “and”; a condition that tells them apart may be missing. Equal entries are not always repeated. Where two headings read alike, the source gives them in different places. Marks after values point to notes of the source that are not given here.

Key:
[1] = test system: factor V; experiment: Extended coagulation biomarker panel: factor V; design: species or system human; conditions: in vivo
Description: (§1) In Part 1 the extended panel was collected at screening and at check-in (Day −1) and Day 2 of each period unless the study results warranted a different sampling schedule. In Part 2, the same of the exploratory coagulation biomarkers were collected at screening, check-in, Day 4, and Day 8 in Cohorts 1 and 2, or at check-in, Day 7, and Day 14 in Cohorts 3 and 4 with the following exception: in Cohorts 3 and 4, platelet function was collected at check-in only or when medically indicated.

[2] = test system: coagulation (PT, INR, aPTT); experiment: Basic coagulation panel (PT, INR, aPTT) and coagulation safety (Example 5)
Description: (§2) The INR is the ratio of a subject's prothombin time (PTtest) to the prothombin time of a normal (control) sample (PTnormal), raised to the power of the International Sensitivity Index (ISI) value for the analytical system:
“Prothrombin time” or “PT” refers to the time it takes the blood plasma of a subject to clot after the addition of a thromboplastin reagent. “Thromboplastin reagent” refers to a standardized commercial product which is used in blood coagulation assays to measure blood clotting time.
(§3) As used herein, the terms “activated partial thromboplastin time” or “aPTT” or “partial thromboplastin time” or “PTT,” refer to the time it takes the blood plasma of a subject to clot after the addition of a phospholipid (i.e., partial thromboplastin) and calcium chloride. Non-limiting examples of phospholipids for use in determining aPTT include silica and kaolin.
INR grades are used to rank the severity thresholds for the coagulation factors relative to the upper normal of limit values (ULN). The higher the INR grade the higher the severity. […] As used herein, “Grade 1” refers to an INR value of 1.1 to 1.65 in a subject. As used herein, “Grade 2” refers to an INR value of 1.65 to 2.2 in a subject. As used herein, “Grade 3” refers to an INR value greater than 2.2 in a subject.
Thus both the basic coagulation panel assessments including PT, INR, aPTT, and platelet counts were performed at screening, on Day −1, and extensively throughout the treatment period to assess the potential effect of ATQ on coagulation.
This section covers the PD effect of ATQ on the coagulation parameters PT, INR, and aPPT and the relative time course of drug induced changes in these parameters.

[3] = test system: antithrombin (AT); experiment: Extended coagulation biomarker panel: antithrombin; design: species or system human; conditions: in vivo
Description: as §1

[4] = Multiple ascending dose pharmacokinetics of ATQ (Example 5 Part 2); format: in vivo, human; conditions: for Cmax / AUC: both sexes, human, plasma, oral; for AUC: read-out: AUC(0-tau, 24)
Method: The study was conducted in 2 parts. Part 1 was conducted in healthy male subjects only while Part 2 was conducted in healthy male and female subjects. The intent of this study part was to optimize the dosage regimen and diet for the multiple-dose safety and tolerance Part 2 of the study. All plasma ATQ concentrations were determined using a GLP validated bioanalytical method. ATQ was administered as an oral solution in oil (0.49 g/mL). The placebo solution consisted of olive oil alone.
Part 2 was conducted as a multiple-dose dose-escalation design. […] Dose administration was subsequently switched to a BID regimen administered for 14 days.
Part 2 was conducted as a multiple-dose dose-escalation design in male and female subjects. None of the subjects who participated in Part 1 of the study were eligible to participate in Part 2. A total of 32 subjects were enrolled in Part 2. Twenty (20) subjects received ATQ or placebo for one week in a single-blind, randomized, placebo-controlled design: Cohort 1 […] low dose (1 g/day as 0.33 g TID) and Cohort 2 […] midrange dose (2 g/day as 0.67 g TID). In each cohort, 8 subjects received ATQ and 2 subjects received placebo under fed conditions. An additional 12 subjects were subsequently enrolled into 2 additional cohorts of 6 subjects each. The 12 subjects were randomized to receive one of the two following ATQ doses: Cohort 3 (N=6) low dose (0.5 g BID) and Cohort 4 (N=6) intermediate dose (0.75 g BID) administered for 14 days with a standard meal. All subjects participating in Cohorts 3 and 4 received ATQ; there was no placebo arm.
For Part 2, serial blood samples for the measurement of the plasma levels of ATQ were collected in Cohorts 1 and 2 as part of a 3 times daily regimen prior to and over the first 6-hour dosing interval following administration of the first dose on Day 1, prior to the morning dose on Days 3, 5, and 6, over the 6-hour and 12-hour dosing intervals following the afternoon and evening dose, respectively, and up to 48 hours after the final (morning) dose on Day 7.
In Cohorts 3 and 4, serial blood samples for the measurement of the plasma levels of ATQ were collected for the twice-daily regimen prior to and over the 12-hour dosing interval following the first dose administration on Day 1, prior to the morning dose on Days 4, 7, 10, 13, and 14, and over the 12-hour dosing interval after the final (morning) dose on Day 14. Multiple-dose PK data over the dose range of 1.0-g/day (BID and TID), 1.5-g/day (BID), and 2.0-g/day (TID) were generated in this study.
Part 2 multiple-dose results are provided for Day 7 (Cohorts 1 and 2) or Day 14 unless otherwise indicated. Parameters designated with the term 24 refer to pharmacokinetic parameters derived for a 24-hour TID or BID dosing period.

[5] = test system: coagulation tests (PT, INR, PTT); experiment: Coagulation tests (PT, INR, PTT) after single ATQ dose (Example 4); conditions: for Highest postdose PT value above ULN: one subject
Description: as §2
“Prothrombin time” or “PT” refers to the time it takes the blood plasma of a subject to clot after the addition of a thromboplastin reagent. “Thromboplastin reagent” refers to a standardized commercial product which is used in blood coagulation assays to measure blood clotting time. Non-limiting examples of thromboplastin reagents include RecombiPlasTin (Beckman Coulter, Brea, Calif.), INNOVN® and THROMBOREL® (Dade Behring, Liederbach, Germany).
as §3

[6] = test system: factor X; experiment: Extended coagulation biomarker panel: factor X; format: in vivo, human
Description: as §1

[7] = test system: protein C; experiment: Extended coagulation biomarker panel: protein C; format: in vivo, human; conditions: Part 2, 0.67 g TID, Day 4
Description: as §1

[8] = 1-g/day (0.33 g TID), mean, N = 8
[9] = 1-g/day (0.5 g BID), morning dose data, N = 5
[10] = 1.5-g/day (0.75 g BID), morning dose data, N = 6
[11] = 2-g/day (0.67 g TID), mean, N = 7
[12] = Cohort 5 (6-g ATQ), subject with highest PT
[13] = Cohort 6 (2.2-g as 0.735-g TID)
[14] = of the 48 subjects who received ATQ

CC1=C(C)C(=O)C(CC[C@](C)(O)CCC[C@H](C)CCC[C@H](C)CCCC(C)C)=C(C)C1=O [ATQ, alpha-tocopherolquinone]
Effect on the activity of factor V [1]: did not appear to affect
INR values reached by individual subjects ([2]; 0.67 g TID group, 3 of 8 subjects): 2.3 and 3.0 (2×)
Subjects with that grade of INR increase ([2]; 0.75 g BID, Grade 2): 2 of 6
Subjects with that grade of INR increase ([2]; 2-g/day (0.67 g TID), Grade 3, active-treated): 3 of 8
Effect on coagulation (INR, PT, aPTT) ([2]; 3-g over 1 day, 0.33 g TID and 0.67 g TID or 0.75 g BID): clear effect on coagulation
Effect on coagulation during prolonged dosing ([2]; 14 days at 0.5 g and 0.75 g BID): appeared to slowly abate while still on drug beyond 8 days
Subjects with clinical coagulation laboratory values greater than 1.5 times the upper limit of normal (value greater than 1.65) ([2]; Part 1): 5 subjects
Subjects with clinically relevant changes in clinical laboratory values related to treatment-emergent adverse events ([2]; Part 1): Twelve
Active-treated subjects with clinically relevant changes in clinical laboratory values related to treatment-emergent adverse events ([2]; b179, part not stated): Twenty-five
Subjects with study-drug related clinical coagulation laboratory values greater than 1.5 times the upper limit of normal (value greater than 1.65) ([2]; b179, part not stated): 11 subjects
Onset of the effect on coagulation ([2]; following the first (high dose) of ATQ, Part 1): 18 h
Time course of the effect on coagulation ([2]; initial increase through Day 4, second peak by Day 7 to 8): biphasic
Onset of the effect on coagulation ([2]; multiple dose administration): ≤ 48 h
Time at which most subjects approach baseline coagulation values ([2]; post last dose): 48 h
Subjects with that grade of INR increase ([2]; single daily doses of 3-g ATQ, Grade 2): 4 of 12
Effect on the activity of AT [3]: did not appear to affect
Time for trough concentrations to reach steady state ([4]; 0.33 g TID): ≤ 3 days
Time for trough concentrations to reach steady state ([4]; 0.5 g BID): ≤ 4 days
Time for trough concentrations to reach steady state ([4]; 0.67 g TID): ≤ 3 days
Time for trough concentrations to reach steady state ([4]; 0.75 g BID): 13 days
Cmin ([4]; 1-g/day (0.33 g TID), Day 7, mean, N = 8): 583 ng/mL
CLpo, 24 ([4]; 1-g/day (0.33 g TID), daily dose divided by mean AUC(0-tau, 24)): 24.2 [c] L/h
Cavg, 24 h [4, 8]: 1730 ng/mL
Fluct24 h [4, 8]: 189%
TimeHgh(0-24) (time above the pharmacologically relevant concentration of 0.5 μg/mL) ([4]; 1-g/day (0.33 g TID), median, N = 8): 23.80 h
TimeHgh(0-24) (time above the pharmacologically relevant concentration of 0.5 μg/mL) ([4]; 1-g/day (0.5 g BID), 2 times the 0-12 hour morning dose value, N = 5): 19.68 [e] h
Cmin ([4]; 1-g/day (0.5 g BID), Day 14, mean, N = 5): 308 ng/mL
CLpo, 24 ([4]; 1-g/day (0.5 g BID), morning dose data, Day 14, N = 5): 57.5 L/h
Cavg, 24 h [4, 9]: 1040 ng/mL
Fluct24 h [4, 9]: 145%
Estimated daily AUC higher with TID than BID ([4]; 1-g/day: 0.33 g TID versus 0.5 g BID): approximately 66%
TimeHgh(0-24) (time above the pharmacologically relevant concentration of 0.5 μg/mL) ([4]; 1.5-g/day (0.75 g BID), 2 times the 0-12 hour morning dose value, N = 6): 21.84 [e] h
Cmin ([4]; 1.5-g/day (0.75 g BID), Day 14, mean, N = 6): 443 ng/mL
CLpo, 24 ([4]; 1.5-g/day (0.75 g BID), morning dose data, Day 14, N = 6): 53.5 L/h
Cavg, 24 h [4, 10]: 1380 ng/mL
Fluct24 h [4, 10]: 147%
Cmin ([4]; 2-g/day (0.67 g TID), Day 7, mean, N = 7): 1220 ng/mL
CLpo, 24 ([4]; 2-g/day (0.67 g TID), daily dose divided by mean AUC(0-tau, 24)): 18.5 [c] L/h
Cavg, 24 h [4, 11]: 4480 ng/mL
Fluct24 h [4, 11]: 177%
TimeHgh(0-24) (time above the pharmacologically relevant concentration of 0.5 μg/mL) ([4]; 2-g/day (0.67 g TID), median, N = 7): 23.87 h
Accumulation of Cmax ([4]; BID administration): did not accumulate
Cmax ([4]; 0.33 g, 1-g/day (0.33 g TID), Day 7, N = 8, read-out: Cmax last dose): 2400 ng/mL
Cmax ([4]; 0.33 g, 1-g/day (0.33 g TID), highest Cmax of the 3 serial TID profiles, Day 6 lunch, N = 8, read-out: Cmax): 3530 ng/mL
Cmax ([4]; 0.5 g, 1-g/day (0.5 g BID), Day 14, N = 5, read-out: Cmax last dose): 1890 ng/mL
Cmax ([4]; 0.5 g, 1-g/day (0.5 g BID), Day 14 morning dose, N = 5, read-out: Cmax): 1890 ng/mL
Cmax ([4]; 0.67 g, 2-g/day (0.67 g TID), Day 7, N = 7, read-out: Cmax last dose): 4280 ng/mL
Cmax ([4]; 0.67 g, 2-g/day (0.67 g TID), highest Cmax of the 3 serial TID profiles, Day 6 dinner, N = 7, read-out: Cmax): 9000 ng/mL
AUC ([4]; 0.75 g, 1.5-g/day (0.75 g BID), 2 times the 0-12 hour morning dose value, N = 6): 33200 ng·h/mL
Cmax ([4]; 0.75 g, 1.5-g/day (0.75 g BID), Day 14, N = 6, read-out: Cmax last dose): 2540 ng/mL
Cmax ([4]; 0.75 g, 1.5-g/day (0.75 g BID), Day 14 morning dose, N = 6, read-out: Cmax): 2540 ng/mL
AUC ([4]; 1 g/day, 1-g/day (0.33 g TID), mean, N = 8): 41400 ng·h/mL
AUC ([4]; 1 g/day, 1-g/day (0.5 g BID), 2 times the 0-12 hour morning dose value, N = 5): 25000 ng·h/mL
AUC ([4]; 2 g/day, 2-g/day (0.67 g TID), mean, N = 7): 108000 ng·h/mL
Maximum concentrations higher with TID than BID ([4]; following the final morning dose, similar doses): approximately 27%
Dose proportionality of exposure following multiple-dose administration ([4]; within TID (2-fold) or BID (1.5-fold) dose range): approximately proportional increases
INR change ([5]; 2 g administered as a single entity (2 g QD)): NO INR change
Subjects with 24-hour postdose PT value above ULN ([5]; Cohort 3 (1-g ATQ)): 2 of 8
24-hour postdose PT value above ULN ([5]; Cohort 3 (1-g ATQ), 2 of 8 subjects): 5.2%
Subjects with postdose PT values above ULN ([5]; Cohort 5 (6-g ATQ)): 5 of 8
Highest postdose PT value above ULN ([5]; Cohort 5 (6-g ATQ)): 39.1%
Increase in INR above ULN [5, 12]: 23.1%
Increase in PTT above ULN [5, 12]: 5.6%
Subjects with postdose PT values above ULN [5, 13]: 4 of 8
Highest postdose PT value above ULN [5, 13]: 20.9%
Increase in INR above ULN ([5]; Cohort 6 (2.2-g as 0.735-g TID), subject with highest PT): 7.7%
Subjects with a 24-hour postdose INR value above ULN [5, 14]: 2 subjects
Subjects with a 24-hour postdose PTT value above ULN [5, 14]: 1 subject
Subjects with postdose PT values above the upper limit of normal (ULN) [5, 14]: 11 subjects
Time for INR and PTT values to return to normal range ([5]; postdose, all subjects): ≤ 48 h
Effect on the coagulation tests, especially PT and INR ([5]; single doses, 48 subjects who received ATQ): slight but not clinically significant effect
Reversibility of changes in hemostasis ([5]; upon cessation of the treatment): fully reversible
Decrease from baseline activity of factor X ([6]; Part 2, 0.67 g TID, Day 4): 62%
Decrease from baseline activity of factor X ([6]; Part 2, Day 14): 68%
Protein C activity [7]: 109%
